Assay results from BigSolDB 2.1.

COc1ccc(C(=O)O)cc1OC
Conditions | solubility (mole fraction)
in 2-butanone, 278.95 K | 0.0068
in 2-butanone, 283.15 K | 0.0077
in 2-butanone, 287.95 K | 0.0089
in 2-butanone, 293.32 K | 0.0104
in 2-butanone, 298.13 K | 0.012
in 2-butanone, 303.15 K | 0.014
in 2-butanone, 308.37 K | 0.0162
in 2-butanone, 313.05 K | 0.0184
in 2-butanone, 318.15 K | 0.0212
in 2-butanone, 323.49 K | 0.0246
in ethanol, 278.15 K | 0.0035
in ethanol, 282.93 K | 0.0042
in ethanol, 288.21 K | 0.0051
in ethanol, 293.08 K | 0.0062
in ethanol, 298 K | 0.0074
in ethanol, 303.33 K | 0.0093
in ethanol, 307.9 K | 0.011
in ethanol, 313.3 K | 0.0136
in ethanol, 317.15 K | 0.0161
in ethanol, 323.3 K | 0.0203
in ethyl acetate, 278.3 K | 0.0037
in ethyl acetate, 283.01 K | 0.0044
in ethyl acetate, 288.05 K | 0.0052
in ethyl acetate, 293.15 K | 0.0061
in ethyl acetate, 298 K | 0.0072
in ethyl acetate, 303.13 K | 0.0083
in ethyl acetate, 308.07 K | 0.0099
in ethyl acetate, 313.15 K | 0.0116
in ethyl acetate, 318.06 K | 0.0133
in ethyl acetate, 323.37 K | 0.0157
in isobutanol, 277.9 K | 0.0015
in isobutanol, 283.25 K | 0.002
in isobutanol, 288.15 K | 0.0026
in isobutanol, 293.04 K | 0.0032
in isobutanol, 298.15 K | 0.0041
in isobutanol, 302.94 K | 0.0052
in isobutanol, 308.1 K | 0.0066
in isobutanol, 313.15 K | 0.0083
in isobutanol, 318.01 K | 0.0105
in isobutanol, 323.33 K | 0.0132
in isopropanol, 278.37 K | 0.0024
in isopropanol, 283.05 K | 0.003
in isopropanol, 288.39 K | 0.0039
in isopropanol, 294.07 K | 0.0051
in isopropanol, 299 K | 0.0063
in isopropanol, 303.17 K | 0.0074
in isopropanol, 308.27 K | 0.0095
in isopropanol, 313.13 K | 0.0118
in isopropanol, 318.15 K | 0.015
in isopropanol, 323.2 K | 0.0183
in methyl acetate, 278.3 K | 0.0042
in methyl acetate, 283.01 K | 0.0049
in methyl acetate, 288.05 K | 0.0058
in methyl acetate, 293.15 K | 0.0068
in methyl acetate, 298 K | 0.008
in methyl acetate, 303.13 K | 0.0095
in methyl acetate, 308.07 K | 0.0111
in methyl acetate, 313.15 K | 0.0131
in methyl acetate, 318.06 K | 0.0152
in methyl acetate, 323.37 K | 0.0177
in n-butanol, 277.9 K | 0.0025
in n-butanol, 283.25 K | 0.003
in n-butanol, 288.15 K | 0.0037
in n-butanol, 293.04 K | 0.0046
in n-butanol, 298.15 K | 0.0057
in n-butanol, 302.94 K | 0.007
in n-butanol, 308.1 K | 0.0089
in n-butanol, 313.15 K | 0.011
in n-butanol, 318.01 K | 0.0134
in n-butanol, 323.33 K | 0.0168
in n-propanol, 278.37 K | 0.0027
in n-propanol, 283.05 K | 0.0033
in n-propanol, 288.39 K | 0.0042
in n-propanol, 293.3 K | 0.0051
in n-propanol, 299 K | 0.0066
in n-propanol, 303.17 K | 0.0079
in n-propanol, 308.27 K | 0.0097
in n-propanol, 313.13 K | 0.0118
in n-propanol, 318.15 K | 0.0146
in n-propanol, 323.2 K | 0.0177

O=C(O)c1cc(O)c(O)c(O)c1
in water
Conditions | solubility (mole fraction)
292.18 K | 0.00098
298 K | 0.0011
303.09 K | 0.00142
308.21 K | 0.0019
313.04 K | 0.00244
318.15 K | 0.00328
323.15 K | 0.00427
327.85 K | 0.00523
333.15 K | 0.00693
